According to the supplement of paper PMC11061612:

Tests used:
Assay in all cases: combination Emax (second highest fraction inhibited in the dose matrix, 72 h); higher = more inhibition; extreme values may be limits of the assay
[1] = tested on: CL-11 (Colorectal Carcinoma)
In short: (§1)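 Bliss excess equals the observed combination effect minus the expected value EA + EB − EA·EB, where EA and EB are the effects of each agent alone. Combination Emax is the second-highest inhibition within the matrix. Inhibition was scaled from CellTiter-Glo 2.0 luminescence, with 0 set by vehicle wells and 1 by blank wells, after 72 hours of two-drug dosing of cells plated in 1536-well plates.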

[2] = tested on: OAW-28 (Ovarian Carcinoma)
In short: as §1

[3] = tested on: P30-OHK (B-Lymphoblastic Leukemia)
In short: as §1

[4] = tested on: COR-L88 (Small Cell Lung Carcinoma)
In short: as §1

[5] = tested on: SNU-C2B (Colorectal Carcinoma)
In short: as §1

[6] = tested on: UACC-257 (Melanoma)
In short: as §1

[7] = tested on: SUP-M2 (T-Cell Non-Hodgkin's Lymphoma)
In short: as §1

[8] = tested on: DBTRG-05MG (Glioblastoma)
In short: as §1

[9] = tested on: P32-ISH (Burkitt's Lymphoma)
In short: as §1

[10] = tested on: SNU-407 (Colorectal Carcinoma)
In short: as §1

[11] = tested on: NCI-H226 (Mesothelioma)
In short: as §1

[12] = tested on: ES6 (Ewing's Sarcoma)
In short: as §1

[13] = tested on: SAT (Head and Neck Carcinoma)
In short: as §1

[14] = tested on: PA-TU-8988T (Pancreatic Carcinoma)
In short: as §1

[15] = tested on: MOLT-13 (T-Lymphoblastic Leukemia)
In short: as §1

[16] = tested on: CPC-N (Small Cell Lung Carcinoma)
In short: as §1

[17] = tested on: NMC-G1 (Low Grade Glioma)
In short: as §1

[18] = tested on: NCI-H1876 (Small Cell Lung Carcinoma)
In short: as §1

[19] = tested on: MDA-MB-415 (Breast Carcinoma)
In short: as §1

[20] = tested on: NCI-H1963 (Small Cell Lung Carcinoma)
In short: as §1

Row | Compound | combination Emax [1] | combination Emax [2] | combination Emax [3] | combination Emax [4] | combination Emax [5] | combination Emax [6] | combination Emax [7] | combination Emax [8] | combination Emax [9] | combination Emax [10] | combination Emax [11] | combination Emax [12] | combination Emax [13] | combination Emax [14] | combination Emax [15] | combination Emax [16] | combination Emax [17] | combination Emax [18] | combination Emax [19] | combination Emax [20]
1 | CN(C)CCCOc1ccc(-c2ccc3ncc4c(c3c2)n(C2CCOCC2)c(=O)n4C)cn1 [AZD0156] + C=CCn1c(=O)c2cnc(Nc3ccc(N4CCN(C)CC4)cc3)nc2n1-c1cccc(C(C)(C)O)n1 [AZD1775] (first compound max 1 µM, partner max 1 µM) | 0.545 | 0.27 | 0.678 | 0.622 | 0.55 | 0.14 | 1 | 0.175 | 0.995 | 0.358 | 0.196 | 0.306 | 0.427 | 0.718 | 0.977 | 0.972 | 0.264 | 0.982 | 0.177 | 0.87
2 | CN(C)CCCOc1ccc(-c2ccc3ncc4c(c3c2)n(C2CCOCC2)c(=O)n4C)cn1 [AZD0156] + CCN(CCO)CCCOc1ccc2c(Nc3cc(CC(=O)Nc4cccc(F)c4)[nH]n3)ncnc2c1 [AZD2811] (first compound max 1 µM, 7x7, partner max 1 µM) | 0.0968 | 0.175 | 0.834 | 0.127 | 0.113 | 0.119 | 0.94 | 0.154 | 0.962 | 0.287 | 0.0682 | 0.176 | 0.142 | 0.219 | 0.99 | 0.794 | 0.126 | 0.853 | 0.206 | 0.857
3 | CN(C)CCCOc1ccc(-c2ccc3ncc4c(c3c2)n(C2CCOCC2)c(=O)n4C)cn1 [AZD0156] + C[C@@H]1COCCN1C2=NC(=NC(=C2)C3(CC3)[S@](=N)(=O)C)C4=C5C=CNC5=NC=C4 [AZD6738] (first compound max 1 µM, 7x7, partner max 10 µM) | 0.767 | 0.39 | 0.877 | 0.8 | 0.681 | 0.145 | 0.985 | 0.251 | 0.951 | 0.742 | 0.0975 | 0.557 | 0.361 | 0.476 | 0.925 | 0.952 | 0.269 | 0.938 | 0.395 | 0.804
4 | C=CCn1c(=O)c2cnc(Nc3ccc(N4CCN(C)CC4)cc3)nc2n1-c1cccc(C(C)(C)O)n1 [AZD1775] + C[C@@H]1COCCN1C2=NC(=NC(=C2)C3(CC3)[S@](=N)(=O)C)C4=C5C=CNC5=NC=C4 [AZD6738] (first compound max 1 µM, partner max 10 µM) | 0.774 | 0.522 | 0.943 | 0.822 | 0.726 | 0.344 | 1 | 0.332 | 1 | 0.758 | 0.466 | 0.652 | 0.469 | 0.833 | 1 | 0.999 | 0.451 | 0.987 | 0.595 | 1
5 | C=CCn1c(=O)c2cnc(Nc3ccc(N4CCN(C)CC4)cc3)nc2n1-c1cccc(C(C)(C)O)n1 [AZD1775] + O=C(c1cc(Cc2n[nH]c(=O)c3ccccc23)ccc1F)N1CCN(C(=O)C2CC2)CC1 [Olaparib] (first compound max 1 µM, partner max 10 µM) | 0.584 | 0.251 | 0.748 | 0.594 | 0.601 | 0.166 | 0.993 | 0.248 | 0.997 | 0.465 | 0.342 | 0.444 | 0.449 | 0.8 | 0.975 | 0.93 | 0.431 | 0.968 | 0.229 | 0.845
6 | CCN(CCO)CCCOc1ccc2c(Nc3cc(CC(=O)Nc4cccc(F)c4)[nH]n3)ncnc2c1 [AZD2811] + C=CCn1c(=O)c2cnc(Nc3ccc(N4CCN(C)CC4)cc3)nc2n1-c1cccc(C(C)(C)O)n1 [AZD1775] (first compound max 1 µM, partner max 1 µM) | 0.612 | 0.213 | 0.846 | 0.64 | 0.554 | 0.154 | 1 | 0.195 | 1 | 0.416 | 0.185 | 0.285 | 0.41 | 0.678 | 1 | 0.961 | 0.254 | 0.991 | 0.131 | 0.876
7 | Cc1c2c(nn1C)CSCc1cc(n(C)n1)CSc1cc(c3ccccc3c1)OCCCc1c(C(=O)O)n(C)c3c-2c(Cl)ccc13 [AZD5991] + CCN(CCO)CCCOc1ccc2c(Nc3cc(CC(=O)Nc4cccc(F)c4)[nH]n3)ncnc2c1 [AZD2811] (first compound max 1 µM, 7x7, partner max 1 µM) | – | 0.378 | 0.963 | 0.36 | 0.17 | 0.322 | 1 | 0.225 | 1 | 0.694 | 0.262 | 0.29 | 0.811 | 0.775 | 1 | 0.835 | 0.305 | 0.998 | 0.56 | 0.842
8 | C[C@@H]1COCCN1c1cc(C2([S@](C)(=N)=O)CC2)nc(-c2ccnc3[nH]ccc23)n1 [AZD6738] + O=C(c1cc(Cc2n[nH]c(=O)c3ccccc23)ccc1F)N1CCN(C(=O)C2CC2)CC1 [Olaparib] (first compound max 10 µM, 7x7, partner max 10 µM) | 0.758 | 0.396 | – | 0.342 | 0.69 | 0.142 | 1 | 0.239 | 0.91 | 0.75 | 0.207 | 0.522 | 0.371 | 0.448 | 0.999 | 0.912 | 0.392 | 0.945 | 0.446 | 0.804
9 | CCc1c2c(nc3ccc(O)cc13)-c1cc3c(c(=O)n1C2)COC(=O)[C@]3(O)CC [SN-38] + O=C(c1cc(Cc2n[nH]c(=O)c3ccccc23)ccc1F)N1CCN(C(=O)C2CC2)CC1 [Olaparib] (first compound max 0.3 µM, 7x7, partner max 10 µM) | 0.776 | – | 0.99 | 0.535 | 0.478 | 0.343 | 1 | 0.407 | 1 | – | 0.168 | 0.618 | 0.418 | 0.604 | 1 | 0.392 | 0.246 | – | 0.321 | 0.854
10 | Cn1cnc2c(F)c(Nc3ccc(Br)cc3Cl)c(C(=O)NOCCO)cc21 [Selumetinib] + C=CCn1c(=O)c2cnc(Nc3ccc(N4CCN(C)CC4)cc3)nc2n1-c1cccc(C(C)(C)O)n1 [AZD1775] (first compound max 10 µM, partner max 1 µM) | 0.855 | 0.395 | 0.675 | 0.666 | 0.463 | 0.607 | 0.996 | 0.395 | 0.999 | 0.722 | 0.145 | 0.233 | 0.637 | 0.805 | 1 | 0.748 | – | 0.982 | 0.23 | 0.913
11 | Cn1cnc2c(F)c(Nc3ccc(Br)cc3Cl)c(C(=O)NOCCO)cc21 [Selumetinib] + CC(C)n1c(=O)n(C)c2cnc3cc(F)c(-c4ccc(OCCCN5CCCCC5)nc4)cc3c21 [AZD1390] (first compound max 10 µM, 7x7, partner max 0.3 µM) | 0.691 | 0.332 | 0.217 | 0.198 | 0.29 | 0.568 | 0.168 | 0.315 | 0.101 | 0.507 | 0.133 | 0.147 | 0.47 | 0.321 | 0.456 | 0.0753 | – | 0.272 | 0.222 | 0.303
12 | Cn1cnc2c(F)c(Nc3ccc(Br)cc3Cl)c(C(=O)NOCCO)cc21 [Selumetinib] + CCN(CCO)CCCOc1ccc2c(Nc3cc(CC(=O)Nc4cccc(F)c4)[nH]n3)ncnc2c1 [AZD2811] (first compound max 10 µM, 7x7, partner max 1 µM) | 0.709 | 0.408 | 0.835 | 0.257 | 0.335 | 0.68 | 0.998 | 0.282 | 0.867 | 0.726 | 0.216 | 0.15 | 0.604 | 0.321 | 1 | 0.717 | – | 0.792 | 0.248 | 0.902
13 | Cn1cnc2c(F)c(Nc3ccc(Br)cc3Cl)c(C(=O)NOCCO)cc21 [Selumetinib] + C[C@@H]1COCCN1C2=NC(=NC(=C2)C3(CC3)[S@](=N)(=O)C)C4=C5C=CNC5=NC=C4 [AZD6738] (first compound max 10 µM, 7x7, partner max 10 µM) | 0.873 | 0.598 | 0.889 | 0.494 | 0.468 | 0.595 | 1 | 0.358 | 0.918 | 0.758 | 0.152 | 0.367 | 0.561 | 0.466 | 1 | 0.824 | – | 0.895 | 0.458 | 0.855
